According to paper PMC8422652, “Neuromedin U induces an invasive phenotype in CRC cells expressing the NMUR2 receptor” (Journal of Experimental & Clinical Cancer Research : CR, 2021):
Where two headings read alike, the source gives them in different places. Square brackets hold non-standard residues; d marks the D form. Ends that are not written are not given here. Peptide text beside a SMILES is read from it. Dmt = Cc1cc(O)cc(C)c1C[C@H](N)C(=O)O; Tic = O=C(O)[C@@H]1Cc2ccccc2CN1

What was measured:
[1] = Half-life in human plasma (plasma stability); assay type: in vitro ADME
Excerpt: NMURs agonists, which are NMU-8 analogues, were synthesized with a HPLC purity > 98 %, as described in literature. […] All peptides were used as solutions in water. Peptide sequences and stability data are available in the Table S1 (Additional File 1).

[2] = tested on: NMUR1 and NMUR2 expression in CRC cells; assay: 5-aza-CdR treatment for NMUR1 and NMUR2 expression analysis (real-time PCR); assay type: cell-based, human; conditions: 50 µM for 96 h (4 days), n ≥ 4
Experimental: Total RNA was isolated with the ReliaPrep™ RNA Cell Miniprep System (Promega, Madison, WI, USA). The quality control of isolated RNA was performed using the 2100 Bioanalyser (Agilent Technologies, Palo Alto, CA, USA) according to the manufacturer’s instructions. 1 µg of the isolated total RNA (RIN ≥ 8) was reverse transcribed using the High Capacity cDNA Reverse Transcription Kit (Applied Biosystems, CA, USA) according to the manufacturer’s instructions. Real time PCR for human NMU, NMUR1, NMUR2, NTSR1, GHSR1b, GAPDH and β-actin was performed using FastStart Essential DNA Probes Master or FastStart Essential DNA Green Master (Roche, Basel, Switzerland). Amplification was performed on a Roche LightCycler 96. GADPH and/or β-actin mRNA transcripts were used as internal control genes. The amount of target in the various samples was calculated using the 2^−ΔCt relative quantification method with DataAssist v.3.01.
Cells were seeded on 6-well plates (Corning, NY, USA). After cells attachment (6 h), DNA methyltransferase inhibitor, 5-aza-2’-deoxycytidine (5-aza-CdR) (Sigma-Aldrich) was added at final concentration of 50 µM. Medium containing 5-aza-CdR was refreshed every 24 h. After 96 h, total RNA was isolated and analysed. The real-time PCR products were analysed on a 2 % agarose gel with ethidium bromide (Sigma-Aldrich) and visualized.

[3] = species not given; cited from earlier work
Excerpt: Physiologically, NMU has been predominantly found in the central nervous system and in the periphery. In the gastrointestinal tract, locally administered NMU leads to smooth muscle contraction, regulating intestinal motility and regional blood flow, but epithelial cells are not the source of the peptide in the gastrointestinal tract under normal conditions. Human neuromedin U synthesis is tightly regulated at the genetic, epigenetic, transcriptional and post-transcriptional levels, regulating access to cellular microenvironments. Peptide precursors can be produced from three ...

HT29 cells = assay: Ca2+ mobilization assay (fluo-4) in HT29 cells; assay type: cell-based, human
Experimental: (§1) Cells grown on poly-lysine-coated 48-well plates (Corning) for 24 h were stained for 15 min at 37 °C with Hoechst 33342 (Invitrogen). PBS rinsed cells were loaded with Fluo-4 AM (5 µM; Invitrogen) for 45–60 min at 37 °C in the presence of 0.5 % of pluronic-127 in the incubation medium (growth medium without FBS and PS, supplemented with 0.1 % BSA). Cells were rinsed with warm PBS and bathed in a final volume of 300 µl of incubation medium. Images were acquired using AxioVert fluorescence inverted microscope (Zeiss, Germany) with the use of 10 x dry objective (NA 0.3). First, an image of Hoechst 33342-stained nuclei was acquired. Next, a time-lapse image sequence in green channel (Fluo-4) was recorded with exposure time of 500 ms in the same field of view. […] For analysis of CRC cells we chose minimal concertation that induce significant fluorescence change. NMU-9 (1 µM) and NMUR2 agonist (200 nM ~ 5 times the EC50 determined in literature). […] Quantification of the effects is described in Additional Files 1 and 3. […]
(§2) Quantification of the calcium mobilisation were performed with the use of FIJI image processing package***. […] Fluorescence intensity change over time was measured in each ROI in corresponding movie sequence of Fluo-4 stained cells. […] Such background-corrected values of fluorescence intensity were used for further calculations. […]

[4] = tested on: HEK293 R2_HA cell line overexpressing NMUR2; assay: Ca2+ mobilization assay (fluo-4) in HEK293 R2_HA cells; assay type: cell-based, human
Experimental: as §1, §2

[5] = tested on: ERK1/2 in HEK293 R2_HA cells; assay: ERK1/2 activation analysis (immunoblot) in HEK293 R2_HA cells; assay type: cell-based, human; conditions: HEK293 R2_HA clone, n = 1
Experimental: CRC cells were lysed with RIPA buffer (100 mM TRIS-HCl, pH 7.5, 300 mM NaCl, 0.2 % SDS with 1 % IGEPAL CA-630 and the Halt™ Protease Inhibitor Cocktail (Thermo Fisher Scientific)) with subsequent centrifugation (18,000 x g, 4 °C, 20 min). Total protein concentration in lysate was quantified by BCA method (Pierce BCA Protein Assay; Thermo Fisher Scientific). Samples were loaded and separated by SDS-PAGE (Mini-PROTEAN TGX Stain-Free Gels; Bio-Rad Laboratories, CA, USA) and transferred onto nitrocellulose membranes (Bio-Rad Laboratories). NMU protein was detected with rabbit anti-NMU antibody (Genetex, CA, USA), for ERK1/2 kinases analysis mouse anti-ERK1/2 (Santa Cruz Biotechnology, USA) and rabbit anti-pERK1/2 antibodies (Invitrogen) were used. […] Proteins used as loading controls were detected by mouse anti-β-actin, mouse anti-α-tubulin or rabbit anti-GAPDH antibody (Abcam, Cambridge, GB). […] The signal was detected by chemiluminescence (Thermo Fisher Scientific) with Kodak BioMax Light Film from Eastman Kodak (NY, USA). […]
Fig. S1 HEK293 R2_HA clones with exogenous NMUR2 overexpression. (A) NMUR2 mRNA levels were analysed in HT29 with endogenous expression of NMUR2 and compared to those in HEK293 R2_HA clones with exogenous expression of NMUR2 (**p ≤ 0,01; n ≥ 3). […] The changes in fluorescence were detected and analysed as described in the Methods section. […]

NMUR2 = NMUR2 agonist, cited from earlier work
Excerpt: (§3) NMURs agonists, which are NMU-8 analogues, were synthesized with a HPLC purity > 98 %, as described in literature.

ERK1/2 in Caco-2 cells = assay: ERK1/2 activation analysis (immunoblot) in Caco-2 cells; assay type: cell-based, human; conditions: SBL-NMU-17 250 nM, immunoblot pERK1/2 normalised to ERK1/2 and α-tubulin, n = 5 (NMU-9 n = 1)
Experimental: CRC cells were lysed with RIPA buffer (100 mM TRIS-HCl, pH 7.5, 300 mM NaCl, 0.2 % SDS with 1 % IGEPAL CA-630 and the Halt™ Protease Inhibitor Cocktail (Thermo Fisher Scientific)) with subsequent centrifugation (18,000 x g, 4 °C, 20 min). Total protein concentration in lysate was quantified by BCA method (Pierce BCA Protein Assay; Thermo Fisher Scientific). Samples were loaded and separated by SDS-PAGE (Mini-PROTEAN TGX Stain-Free Gels; Bio-Rad Laboratories, CA, USA) and transferred onto nitrocellulose membranes (Bio-Rad Laboratories). NMU protein was detected with rabbit anti-NMU antibody (Genetex, CA, USA), for ERK1/2 kinases analysis mouse anti-ERK1/2 (Santa Cruz Biotechnology, USA) and rabbit anti-pERK1/2 antibodies (Invitrogen) were used. In EVs (extracellular vesicles) purity analysis we used rabbit antibodies anti-GM130, anti-annexin V and anti-flotilin-1 (Cell Signaling Technologies, Danvers, MA, USA). Proteins used as loading controls were detected by mouse anti-β-actin, mouse anti-α-tubulin or rabbit anti-GAPDH antibody (Abcam, Cambridge, GB). We used secondary HRP-conjugated goat anti-mouse (Santa Cruz Biotechnology) or anti-rabbit antibodies (Invitrogen). The signal was detected by chemiluminescence (Thermo Fisher Scientific) with Kodak BioMax Light Film from Eastman Kodak (NY, USA). […]

HCT116 cells = assay: Ca2+ mobilization assay (fluo-4) in HCT116 cells; assay type: cell-based, human; conditions: 1 µM NMU-9, 40 nM NMUR1 agonist, percentage of cells above threshold, n = 5
Experimental: as §1, with “change.” for “change. NMU-9 (1 µM) and NMUR2 agonist (200 nM ~ 5 times the EC50 determined in literature).”
Quantification of the calcium mobilisation were performed with the use of FIJI image processing package***. […] Fluorescence intensity change over time was measured in each ROI in corresponding movie sequence of Fluo-4 stained cells. To acquire the change of background fluorescence over time in each movie sequence, additional ROIs were created by the analyst manually in the sites devoid of cells. […]

[6] = cited from earlier work
Excerpt: Supplement 13046_2021_2073_MOESM1_ESM.docx, table 1: Table S1. […] NMURs agonists, which are NMU-8 analogues, were synthesized with a HPLC purity > 98 %, as described in literature.

NMUR1 = NMUR1 agonist, cited from earlier work
Excerpt: as §3

For GYFLFRPRN-NH2 [NMU-9], the “Metabolite observed in plasma stability studies” value [1] was “the peptide devoid of the Gly-Tyr segment was quickly observed” and the “Half-life in human plasma (t1/2)” value ([1]; human) was 4.60 ± 0.4 min.
For Nc1ncn([C@H]2C[C@H](O)[C@@H](CO)O2)c(=O)n1 [5-aza-CdR, 5-aza-2’-deoxycytidine], the “NMUR1 and NMUR2 expression after DNA demethylation” value [2] was “regulated by promoter methylation”.
For “NMU: Native neuromedin U peptide, secretory neuropeptide with amidated C-terminal pentapeptide (FRVDEEFQSPFASQSRGYFLFRPRN-NH2; UniProt P48645 142-166, looked up)”, the “estimated half-life in plasma” value [3] is listed as “less than 5 min”.
With CC(C)C[C@H](NC(=O)[C@H](Cc1ccccc1)NC(=O)[C@@H](N)Cc1ccc(O)cc1)C(=O)N[C@@H](Cc1ccccc1)C(=O)N[C@@H](CCCNC(=N)N)C(=O)N1Cc2ccccc2C[C@H]1C(=O)N[C@@H](CCCNC(=N)N)C(=O)N[C@@H](CC(N)=O)C(N)=O [SBL-NMU-17] (H-YFLFR[Tic]RN-NH2) the “Minimal concentration that induces significant fluorescence change (Ca2+ mobilisation)” value (HT29 cells; CRC cells, tested 150, 200, 300 nM) was 200 nM, the “Change in fluo-4 fluorescence intensity caused by Ca2+ mobilisation” value (HT29 cells; HT29 cells, 1 µM NMU-9, 200 nM NMUR2 agonist, percentage of cells above threshold, n = 5) was “significantly responded” and the “Metabolite observed in plasma stability studies” value ([1]; human plasma, both peptides yielded a 7-amino acid long metabolite) was “only Tyr was lost”. The “Minimal effective concentration (Ca2+ influx)” value ([4]; HEK293 R2_HA cells loaded with fluo-4) was 150 nM, the “Calcium mobilisation (fluo-4)” value ([4]; HEK293 R2_HA, NMU-9 0.7 µM, SBL-NMU-17 150 nM, n = 3) was “significant calcium mobilisation” and the ERK1/2 phosphorylation [5] was “observed ERK1/2 phosphorylation”. The EC50 (NMUR2; IP3 pathway activation data) was 45.5 nM, the IC50 (NMUR2; competitive binding assay) was 13 nM and the “Phosphorylation (activation) of ERK1/2 kinases” value (ERK1/2 in Caco-2 cells) was “induced ERK1/2 kinase activation”.
For CC(=O)N[C@@H](Cc1ccc(O)cc1)C(=O)N[C@@H](Cc1ccccc1)C(=O)N[C@@H](CC(C)C)C(=O)N[C@@H](Cc1c(C)cc(O)cc1C)C(=O)N[C@@H](CCCNC(=N)N)C(=O)N1CCC[C@H]1C(=O)N[C@@H](CCCNC(=N)N)C(=O)N[C@@H](CC(N)=O)C(N)=O [SBL-NMU-21] (Ac-YFL[Dmt]RPRN-NH2), the “Change in fluo-4 fluorescence intensity caused by Ca2+ mobilisation” value (HCT116 cells) is given as “did not detect statistically significant changes”, the “Half-life in human plasma (t1/2)” value [6] is given as 4.225 h and the EC50 (NMUR1; calculated based on the IP3 pathway activation data) is given as 7.7 nM. The IC50 (NMUR1; calculated based on the competitive binding assay) was 0.36 nM.
